Source: patent US9732075B2, “Benzimidazole-proline derivatives” (IDORSIA PHARMACEUTICALS LTD, priority 2012, dated 2017)

Legend:
human orexin-2 receptor = human orexin-2 receptor (Homo sapiens (Human), UniProt O43614); assay: In vitro assay: intracellular calcium measurements (FLIPR), antagonistic activity; assay type: cell-based; settings: CHO cells expressing human orexin-2 receptor, orexin-A agonist, geometric mean, read-out: IC50 Ox2
How it was run: (§1)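 Orexin-A-evoked calcium rise (3 nM final, roughly EC70) was recorded with fluo-4 in recombinant CHO cells, human receptor subtype 1 or 2.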

human orexin-1 receptor = human orexin-1 receptor (Homo sapiens (Human), UniProt O43613); assay: as above; assay type: cell-based; settings: CHO cells expressing human orexin-1 receptor, orexin-A agonist, geometric mean, read-out: IC50 Ox1
Sequence of human orexin-1 receptor (O43613 whole entry): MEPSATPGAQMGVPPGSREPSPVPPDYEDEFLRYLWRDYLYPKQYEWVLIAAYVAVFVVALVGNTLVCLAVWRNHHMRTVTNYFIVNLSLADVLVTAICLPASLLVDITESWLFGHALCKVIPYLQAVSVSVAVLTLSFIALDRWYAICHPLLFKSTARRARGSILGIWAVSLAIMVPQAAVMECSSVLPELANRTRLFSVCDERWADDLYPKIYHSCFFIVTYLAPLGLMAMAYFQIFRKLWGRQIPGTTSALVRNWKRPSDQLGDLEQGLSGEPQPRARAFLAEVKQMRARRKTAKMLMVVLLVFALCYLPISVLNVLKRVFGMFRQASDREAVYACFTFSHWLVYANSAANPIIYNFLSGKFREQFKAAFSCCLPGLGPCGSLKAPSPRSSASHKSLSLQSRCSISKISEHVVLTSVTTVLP
How it was run: as §1

Sequence of human orexin-2 receptor (O43614 whole entry): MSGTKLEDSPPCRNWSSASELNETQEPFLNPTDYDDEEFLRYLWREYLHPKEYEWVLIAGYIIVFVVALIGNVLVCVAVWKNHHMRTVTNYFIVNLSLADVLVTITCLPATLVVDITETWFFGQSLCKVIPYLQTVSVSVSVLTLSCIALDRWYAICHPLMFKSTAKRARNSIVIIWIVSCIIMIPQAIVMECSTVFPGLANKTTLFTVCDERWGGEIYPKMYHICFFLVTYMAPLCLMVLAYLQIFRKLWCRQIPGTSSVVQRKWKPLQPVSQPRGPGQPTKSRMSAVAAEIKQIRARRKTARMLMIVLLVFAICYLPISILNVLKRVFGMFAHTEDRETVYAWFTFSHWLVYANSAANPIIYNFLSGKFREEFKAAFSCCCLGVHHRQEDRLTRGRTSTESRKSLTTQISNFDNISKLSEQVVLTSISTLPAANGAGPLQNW

Row | SMILES | IC50 (human orexin-2 receptor) [µM] | IC50 (human orexin-1 receptor) [µM]
1 | C=C1CN(C(=O)c2nc(C)sc2-c2cccc(Cl)c2)C(C)(c2nc3cc(OC)ccc3[nH]2)C1 (stereo not drawn) [Ex. 6.153] | 0.016 | 0.008
2 | COc1cccc(-c2sc(C)nc2C(=O)N2CCC[C@H]2c2nc3ccc(OC)cc3[nH]2)c1 [Ex. 1.20] | 0.121 | 0.692
3 | C=C1C[C@@H](c2nc3cc(OC)ccc3[nH]2)N(C(=O)c2cncnc2-c2cccc(C)c2)C1 [Ex. 6.17] | 0.047 | 0.308
4 | Cc1ccc(-n2nccn2)c(C(=O)N2CCC[C@@]2(C)c2nc3c(C(C)C)cccc3[nH]2)c1 [Ex. 5.29] | 0.059 | 0.013
5 | CO[C@H]1CN(C(=O)c2ccc(C)cc2-n2nccn2)C(C)(c2nc3c(C)c(Cl)ccc3[nH]2)C1 (stereo partly drawn) [Ex. 3.49] | 0.018 | 0.013
6 | COc1ccc2[nH]c([C@@H]3CCCN3C(=O)c3cc(C)ccc3-n3nccn3)nc2c1 [Ex. 1.2] | 0.007 | 0.349
7 | CSc1cccc2[nH]c([C@@H]3CCCN3C(=O)c3c(-n4nccn4)ccc(C)c3F)nc12 [Ex. 1.174] | 0.087 | 0.068
8 | Cc1c(Cl)ccc2[nH]c([C@]3(C)CCCN3C(=O)c3cc(F)ccc3-c3ccccc3)nc12 [Ex. 5.218] | 0.036 | 0.013
9 | COc1cc2nc([C@]3(C)CCCN3C(=O)c3cc(C)ccc3-n3cccn3)[nH]c2cc1OC [Ex. 5.82] | 0.015 | 0.027
10 | Cc1ccc(-c2cccc(C#N)c2)c(C(=O)N2CCC[C@@]2(C)c2nc3cc(C(F)(F)F)ccc3[nH]2)c1 [Ex. 5.190] | 0.119 | 0.058
11 | COc1cccc(-c2ccc(C)cc2C(=O)N2CCC[C@@]2(C)c2nc3cc(C)c(C)cc3n2C)c1 [Ex. 7.42] | 0.028 | 0.038
12 | Cc1cc2nc([C@]3(C)CCCN3C(=O)c3ccccc3-c3ccc(F)cc3)[nH]c2cc1C [Ex. 5.104] | 0.097 | 0.092
13 | C=C1C[C@@H](c2nc3cc(C)c(C)cc3[nH]2)N(C(=O)c2nc(C)sc2-c2ccc(C)c(C)c2)C1 [Ex. 6.56] | 0.001 | 0.006
14 | CO[C@H]1CN(C(=O)c2cc(C)ccc2-n2nccn2)[C@](C)(c2nc3c(C)c(Cl)ccc3[nH]2)C1 [Ex. 3.30] | 0.002 | 0.002
15 | COc1cc(C(=O)N2CCC[C@@]2(C)c2nc3c(C)c(Cl)ccc3[nH]2)c(-n2nccn2)cc1OC [Ex. 5.39] | 0.02 | 0.036
16 | C=C1C[C@@H](c2nc3cc(OC)ccc3[nH]2)N(C(=O)c2nc(C)sc2-c2cccc(Cl)c2)C1 [Ex. 6.8] | 0.007 | 0.021
17 | C=C1C[C@@H](c2nc3ccc(Cl)c(C)c3[nH]2)N(C(=O)c2cc(Cl)ccc2-n2nccn2)C1 [Ex. 6.128] | 0.001 | 0.02
18 | CO[C@H]1CN(C(=O)c2nc(C)sc2-c2ccccc2)C(C)(c2nc3c(C)c(Cl)ccc3[nH]2)C1 (stereo partly drawn) [Ex. 3.24] | 0.012 | 0.005
19 | COc1cc2nc([C@]3(C)CCCN3C(=O)c3cc(Cl)ccc3-n3nccn3)n(C)c2cc1OC [Ex. 7.24] | 0.033 | 0.033
20 | CSc1cccc2nc([C@@H]3CCCN3C(=O)c3nc(C)sc3-c3cccc(Cl)c3Cl)[nH]c12 [Ex. 1.62] | 0.197 | 0.128

Row | SMILES | IC50 (human orexin-2 receptor) [µM] | IC50 (human orexin-1 receptor) [µM]
21 | C[C@@]1(c2nc3cc(Cl)c(C(F)(F)F)cc3[nH]2)CCCN1C(=O)c1nc(-c2ccccc2F)sc1-c1ccc(F)cc1 [Ex. 5.289] | 0.532 | 0.038
22 | C=C1C[C@@H](c2nc3cc(C(C)(C)C)ccc3[nH]2)N(C(=O)c2ccccc2-n2cccn2)C1 [Ex. 6.172] | 0.067 | 1.26
23 | CSc1cccc2nc([C@@H]3CCCN3C(=O)c3cc(F)ccc3-n3nccn3)[nH]c12 [Ex. 1.163] | 0.017 | 0.167
24 | COc1cc2nc([C@@H]3[C@@H](C)CCN3C(=O)c3sc(C)nc3-c3ccc(C)cc3)[nH]c2cc1OC [Ex. 4.51] | 0.677 | 0.099
25 | COc1ccc2nc([C@@H]3CCCN3C(=O)c3cncnc3-c3ccc(Br)c(Cl)c3)[nH]c2c1 [Ex. 1.30] | 0.147 | 0.624
26 | CSc1ccc2nc([C@@H]3CCCN3C(=O)c3nc(C4CC4)sc3-c3ccc(C)cc3)[nH]c2c1 [Ex. 1.41] | 0.064 | 0.115
27 | COc1ccc(-n2nccn2)c(C(=O)N2CC[C@H](C)[C@H]2c2nc3cc(OC)c(OC)cc3[nH]2)c1 [Ex. 4.43] | 0.097 | 0.039
28 | COc1ccc2nc([C@@H]3CCCN3C(=O)c3cnc(C)nc3-c3cccc(Cl)c3)[nH]c2c1 [Ex. 1.29] | 0.182 | 0.369
29 | COc1ccc2nc([C@@H]3CCCN3C(=O)c3nc(C)sc3-c3cccc(Cl)c3)[nH]c2c1 [Ex. 1.25] | 0.09 | 0.364
30 | C=C1C[C@@H](c2nc3cc(OC)ccc3[nH]2)N(C(=O)c2ccccc2-c2csc(C)n2)C1 [Ex. 6.21] | 0.076 | 1.97
31 | Cc1c(Cl)ccc2[nH]c([C@]3(C)CCCN3C(=O)c3nc(-c4cccc(C#N)c4)sc3-c3ccc(F)cc3)nc12 [Ex. 5.255] | 0.145 | 0.001
32 | C=C1C[C@@H](c2nc3cc(C)c(C)cc3[nH]2)N(C(=O)c2cc(C)ccc2-n2nccn2)C1 [Ex. 6.61] | 0.004 | 0.041
33 | C=C1C[C@@H](c2nc3cc(OC)ccc3[nH]2)N(C(=O)c2ncsc2-c2cccc(Cl)c2)C1 [Ex. 6.32] | 0.103 | 0.814
34 | C[C@@]1(c2nc3cc(C(F)(F)F)ccc3[nH]2)CCCN1C(=O)c1cc(OC(F)(F)F)ccc1-n1nccn1 [Ex. 5.173] | 1.14 | 0.29
35 | C=C1C[C@@H](c2nc3cc(OC)ccc3[nH]2)N(C(=O)c2nc(C3CC3)sc2-c2cccc(OC)c2)C1 [Ex. 6.31] | 0.022 | 0.041
36 | Cc1ccc(-n2cccn2)c(C(=O)N2CCC[C@@]2(C)c2nc3cc(C(F)(F)F)ccc3[nH]2)n1 [Ex. 5.177] | 0.86 | 0.076
37 | CSc1cccc2nc([C@@H]3CCCN3C(=O)c3cc(C)ccc3-n3nccn3)[nH]c12 [Ex. 1.5] | 0.023 | 0.056
38 | C=C1CC(c2nc3cccc(Cl)c3[nH]2)N(C(=O)c2cc(C)sc2-c2ccc(C)c(C)c2)C1 (stereo not drawn) [Ex. 6.84] | 0.014 | 0.008
39 | Cc1ccc(-c2ccccc2C(=O)N2CCC[C@@]2(C)c2nc3c(C)c(C)ccc3[nH]2)cc1 [Ex. 5.120] | 0.026 | 0.048
40 | Cc1nc(C(=O)N2CCCC2c2nc3c(C)c(C)ccc3[nH]2)c(-c2ccccc2)s1 (stereo not drawn) [Ex. 1.139] | 0.026 | 0.103

Row | SMILES | IC50 (human orexin-2 receptor) [µM] | IC50 (human orexin-1 receptor) [µM]
41 | COCCn1c([C@]2(C)CCCN2C(=O)c2cc(C)ccc2-c2ccc(C)cc2)nc2cc(C)c(C)cc21 [Ex. 7.41] | 0.106 | 0.044
42 | CSc1cccc2nc([C@@H]3CCCN3C(=O)c3nc(C4CC4)sc3-c3ccc(F)cc3)[nH]c12 [Ex. 1.70] | 0.026 | 0.026
43 | C=C1C[C@@H](c2nc3cccc(C)c3[nH]2)N(C(=O)c2nc(C)sc2-c2cccc(C)c2)C1 [Ex. 6.101] | 0.0009 | 0.01
44 | Cc1ccc(-c2sccc2C(=O)N2CC[C@H](C)[C@H]2c2nc3c(Cl)cccc3[nH]2)cc1C [Ex. 4.127] | 0.019 | 0.001
45 | CSc1ccc2nc([C@@H]3CCCN3C(=O)c3cnc(C)nc3-c3cc(Cl)cc(Cl)c3)[nH]c2c1 [Ex. 1.59] | 0.252 | 0.077
46 | Cc1ccc(-n2nccn2)c(C(=O)N2CCC[C@@]2(C)c2nc3cc(C(F)(F)F)ccc3[nH]2)c1F [Ex. 5.169] | 0.197 | 0.063
47 | Cc1ccc(-n2nccn2)c(C(=O)N2CCC[C@@]2(C)c2nc3cc(C(C)(C)C)ccc3[nH]2)c1 [Ex. 5.13] | 0.031 | 0.006
48 | Cc1nc(C(=O)N2CC[C@H](C)[C@H]2c2nc3cc(C)c(C)cc3[nH]2)c(-c2cccc(Cl)c2)s1 [Ex. 4.10] | 0.833 | 0.002
49 | C=C1C[C@@H](c2nc3cc(Cl)c(C(F)(F)F)cc3[nH]2)N(C(=O)c2cc(C)ccc2-n2cccn2)C1 [Ex. 6.187] | 0.015 | 0.024
50 | C=C1CC(c2nc3cc(Cl)c(C(F)(F)F)cc3[nH]2)N(C(=O)c2cc(C)sc2-c2ccc(C)c(C)c2)C1 (stereo not drawn) [Ex. 6.82] | 0.208 | 0.036
51 | Cc1ccc(-c2ccc3c(c2)OCO3)c(C(=O)N2CCC[C@@]2(C)c2nc3cc(C(F)(F)F)ccc3[nH]2)c1 [Ex. 5.198] | 0.034 | 0.018
52 | Cc1nc(C(=O)N2CC[C@H](C)[C@H]2c2nc3cc(C)c(C)cc3[nH]2)c(-c2ccc(F)cc2)s1 [Ex. 4.90] | 2.35 | 0.006
53 | CO[C@@H]1C[C@@H](c2nc3ccc(Cl)c(C)c3[nH]2)N(C(=O)c2ccccc2-c2ccc(F)c(C)c2)C1 [Ex. 3.40] | 0.007 | 0.008
54 | C=C1C[C@@H](c2nc3cc(OC)ccc3[nH]2)N(C(=O)c2ccsc2-c2cccc(C)c2)C1 [Ex. 6.38] | 0.019 | 0.269
55 | Cc1cc2[nH]c([C@@H]3[C@@H](C)CCN3C(=O)c3cc(C#N)ccc3-c3ccccc3)nc2cc1Cl [Ex. 4.108] | 0.419 | 0.007
56 | COc1ccc(-c2cccc(C(F)(F)F)c2)c(C(=O)N2CCC[C@@]2(C)c2nc3ccc(Cl)c(C)c3[nH]2)c1F [Ex. 5.303] | 0.021 | 0.029
57 | C=C1CC(c2nc3c(Br)cccc3[nH]2)N(C(=O)c2nc(C3CC3)sc2-c2cccc(C)c2)C1 (stereo not drawn) [Ex. 6.93] | 0.003 | 0.0009
58 | Cc1cc(C(=O)N2CCC[C@@]2(C)c2nc3cc(F)c(Br)cc3[nH]2)c(-n2nccn2)cc1C [Ex. 5.127] | 0.006 | 0.001
59 | C[C@@]1(c2nc3cc(F)c(Br)cc3[nH]2)CCCN1C(=O)c1cc(Cl)ccc1-n1nccn1 [Ex. 5.129] | 0.062 | 0.02
60 | COc1ccc2nc([C@@H]3CCCN3C(=O)c3ccccc3-c3ccc(C)c(C)c3)[nH]c2c1 [Ex. 1.26] | 0.022 | 0.125
